Laboratory results reported in paper PMC7717986, “Echinacoside Suppresses Amyloidogenesis and Modulates F-actin Remodeling by Targeting the ER Stress Sensor PERK in a Mouse Model of Alzheimer’s Disease” (Frontiers in Cell and Developmental Biology, 2020).

What was measured:
human PERK (hPERK) = biological target: T1, human PERK (hPERK) (Homo sapiens, UniProt Q9NZJ5); assay: microscale thermophoresis (MST) with labeled PERK protein; assay type: binding
T1 construct: gene EIF2AK3
T1 sequence (Q9NZJ5 30-1116): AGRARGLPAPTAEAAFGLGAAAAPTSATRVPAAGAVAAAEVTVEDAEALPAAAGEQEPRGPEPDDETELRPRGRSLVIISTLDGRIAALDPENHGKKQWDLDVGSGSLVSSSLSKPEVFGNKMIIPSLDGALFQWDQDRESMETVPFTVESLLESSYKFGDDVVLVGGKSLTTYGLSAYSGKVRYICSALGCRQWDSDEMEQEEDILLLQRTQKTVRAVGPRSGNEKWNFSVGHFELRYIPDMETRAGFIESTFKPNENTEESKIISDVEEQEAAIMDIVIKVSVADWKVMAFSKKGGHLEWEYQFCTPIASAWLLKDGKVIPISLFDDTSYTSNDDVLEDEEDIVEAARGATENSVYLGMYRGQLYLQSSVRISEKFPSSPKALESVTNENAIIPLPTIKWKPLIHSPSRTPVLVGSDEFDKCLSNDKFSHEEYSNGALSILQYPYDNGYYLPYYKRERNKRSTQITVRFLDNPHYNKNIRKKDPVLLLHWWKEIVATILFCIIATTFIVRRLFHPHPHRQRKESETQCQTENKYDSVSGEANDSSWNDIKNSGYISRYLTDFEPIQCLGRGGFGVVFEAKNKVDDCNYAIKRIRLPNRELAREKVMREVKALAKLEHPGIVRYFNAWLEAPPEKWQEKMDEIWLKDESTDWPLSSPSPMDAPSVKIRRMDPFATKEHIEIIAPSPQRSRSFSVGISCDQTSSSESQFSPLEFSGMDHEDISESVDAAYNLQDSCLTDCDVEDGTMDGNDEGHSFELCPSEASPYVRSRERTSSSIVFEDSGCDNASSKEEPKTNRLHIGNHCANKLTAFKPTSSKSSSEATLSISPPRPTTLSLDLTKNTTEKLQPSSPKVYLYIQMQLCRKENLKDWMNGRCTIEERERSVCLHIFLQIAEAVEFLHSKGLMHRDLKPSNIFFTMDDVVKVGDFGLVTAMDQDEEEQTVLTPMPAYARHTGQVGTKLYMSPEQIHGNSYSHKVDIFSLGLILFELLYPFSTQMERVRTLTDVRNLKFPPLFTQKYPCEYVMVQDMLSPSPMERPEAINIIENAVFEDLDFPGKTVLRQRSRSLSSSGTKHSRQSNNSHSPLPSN

mouse PERK (mPERK) = biological target: T2, mouse PERK (mPERK) (Mus musculus, UniProt Q9Z2B5); assay: as above; assay type: binding
T2 construct: gene Eif2ak3
T2 sequence (Q9Z2B5 29-1114): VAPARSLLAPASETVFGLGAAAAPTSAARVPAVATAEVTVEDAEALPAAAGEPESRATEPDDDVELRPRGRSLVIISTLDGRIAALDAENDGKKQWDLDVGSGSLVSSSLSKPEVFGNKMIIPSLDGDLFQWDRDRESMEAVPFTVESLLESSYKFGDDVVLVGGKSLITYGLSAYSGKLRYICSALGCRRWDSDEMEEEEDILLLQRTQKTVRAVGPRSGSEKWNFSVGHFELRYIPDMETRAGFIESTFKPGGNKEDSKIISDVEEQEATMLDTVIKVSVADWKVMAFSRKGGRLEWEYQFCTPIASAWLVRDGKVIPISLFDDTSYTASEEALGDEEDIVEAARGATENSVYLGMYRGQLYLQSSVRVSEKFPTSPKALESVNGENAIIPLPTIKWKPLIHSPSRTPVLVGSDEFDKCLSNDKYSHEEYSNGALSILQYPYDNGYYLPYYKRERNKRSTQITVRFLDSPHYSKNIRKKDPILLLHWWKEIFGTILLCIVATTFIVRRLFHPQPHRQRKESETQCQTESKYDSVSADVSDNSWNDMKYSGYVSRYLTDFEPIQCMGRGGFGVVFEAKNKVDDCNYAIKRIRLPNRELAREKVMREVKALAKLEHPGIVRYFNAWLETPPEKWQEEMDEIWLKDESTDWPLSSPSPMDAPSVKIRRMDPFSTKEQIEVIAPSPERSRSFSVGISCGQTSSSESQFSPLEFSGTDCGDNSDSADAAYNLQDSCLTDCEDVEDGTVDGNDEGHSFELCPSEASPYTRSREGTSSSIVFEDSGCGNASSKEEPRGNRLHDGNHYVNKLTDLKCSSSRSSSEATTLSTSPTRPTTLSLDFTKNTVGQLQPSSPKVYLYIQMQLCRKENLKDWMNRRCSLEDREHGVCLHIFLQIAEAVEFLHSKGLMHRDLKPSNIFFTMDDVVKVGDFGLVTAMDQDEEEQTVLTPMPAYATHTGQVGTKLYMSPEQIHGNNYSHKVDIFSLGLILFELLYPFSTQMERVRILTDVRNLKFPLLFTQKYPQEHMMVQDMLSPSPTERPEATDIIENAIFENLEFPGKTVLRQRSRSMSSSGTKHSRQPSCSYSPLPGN

Kd (human PERK (hPERK)): 635 ± 74 nM | Kd (mouse PERK (mPERK)): 851 ± 81 nM
Compound: C[C@@H]1O[C@@H](O[C@@H]2[C@@H](O)[C@H](OCCc3ccc(O)c(O)c3)O[C@H](CO[C@@H]3O[C@H](CO)[C@@H](O)[C@H](O)[C@H]3O)[C@H]2OC(=O)/C=C/c2ccc(O)c(O)c2)[C@H](O)[C@H](O)[C@H]1O [ECH, Echinacoside]
